Test results as given in patent US7214396B2, “Confectionery product containing functional ingredients and method of making and using” (Nestec S.A., priority 2000, dated 2007).

Columns and labels:
[1] = cited from earlier work; for solubility: water at 37° C.
[2] = cooling effect: instant fall of temperature when powder is added to water; format: physicochemical; conditions: 150 g of powder added to 50 ml of water at 37° C.
Experimental: A suitable monosaccharide polyol is preferably selected from the group consisting of xylitol, erythritol, sorbitol or a combination thereof. […] (Instant fall of temperature when 150 g of powder are added to 50 ml of water at 37° C.).

Row | Structure (SMILES) | solubility [1] | measured cooling effect (instant fall of temperature) [2] | water solubility compared with other polyols ([1]; anhydride crystals)
1 | OC[C@@H](O)[C@@H](O[C@H]1O[C@H](CO)[C@@H](O)[C@H](O)[C@H]1O)[C@H](O)[C@@H](O)CO [maltitol, reference compound] | less than 205 g/100 g | – | –
2 | OC[C@@H](O)[C@@H](O)[C@H](O)[C@@H](O)CO [sorbitol] | 330–340 g/100 g | about −22 °C | –
3 | OC[C@H]1O[C@@](CO)(O[C@H]2O[C@H](CO)[C@@H](O)[C@H](O)[C@H]2O)[C@@H](O)[C@@H]1O [sucrose, reference compound] | under 230 g/100 g | – | –
4 | OC[C@@H](O)[C@@H](O)CO [Erythritol] | – | – | less water soluble
5 | OC[C@@H](O)[C@H](O)[C@@H](O)CO [xylitol] | 250–260 g/100 g | about −20 °C | –
